In patent US10869878B2, “Vaginal composition and use thereof” (SINGAPORE ZE&Z INTERNATIONAL PTE. LTD, priority 2014, dated 2020):
Where two headings read alike, the source gives them in different places.

What was measured:
BV = details: cited from earlier work; for cure rate for BV: Livengood 2007
BV-associated bacteria [1] = assay: Acid production by BV-associated bacteria in semi-solid agars containing a carbohydrate, anaerobic incubation (Experimental Example 2); assay type: cell-based; details: 24 hrs anaerobic, 37° C., 1.5% (w/v) carbohydrate, initial pH 5.4
From the text: (1) Grouping in experiment: • (1) Glucose group: containing 1.5% (w/v) glucose, MRS basal medium without carbohydrate, 5% (w/v) calf serum, and 0.45% (w/v) agar, pH5.4; • (2) Fructose group: containing 1.5% (w/v) fructose, MRS basal medium without carbohydrate, 5% (w/v) calf serum, and 0.45% (w/v) agar, pH5.4; • (3) Mannose group: containing 1.5% (w/v) mannose, MRS basal medium without carbohydrate, 5% (w/v) calf serum, and 0.45% (w/v) agar, pH5.4; • (4) Sucrose group: containing 1.5% (w/v) sucrose, MRS basal medium without carbohydrate, 5% (w/v) calf serum, and 0.45% (w/v) agar, pH5.4; • (5) Maltose group: containing 1.5% (w/v) maltose, MRS basal medium without carbohydrate, 5% (w/v) calf serum, and 0.45% (w/v) agar, pH5.4; • (6) Isomaltose group: containing 1.5% (w/v) isomaltose, MRS basal medium without carbohydrate, 5% (w/v) calf serum, and 0.45% (w/v) agar, pH5.4; and • (7) Isomaltulose group: containing 1.5% (w/v) isomaltulose, MRS basal medium without carbohydrate, 5% (w/v) calf serum, and 0.45% (w/v) agar, pH5.4.
The semi-solid agar of each group was formulated essentially following the method described in Composition Example 1, then sterilized, added with calf serum, and packed in test tubes in a specification of 5 g/tube, for late use.
(§1) (2) Secretion specimens from BV patients: vaginal secretions from 5 BV patients; and the criteria of inclusion are: • (1) conforming to the Amsel clinical criteria of BV diagnosis, wherein the pH value of the vaginal secretions was >4.6; • (2) after smearing, Gram staining and microscopical examination of vaginal secretions, Nugent score ≥7; and • (3) no other vaginosis and no antimicrobial agent is used within two weeks.
(3) After sampling, the secretion specimens from BV patients meeting the criteria of inclusion were immediately inoculated to the above 7 aseptic semi-solid agars containing a carbohydrate at the bedside and anaerobically incubated at 37° C. for 24 hrs. The pH values of the agar matrices are detected with a precise pH test paper.

L. jensenii = details: medium with 0.5% (w/v) isomaltulose, pH 5.4
From the text: (§3) The following culture media containing different concentrations of preservatives were formulated with a basal medium containing 0.5% (w/v) isomaltulose, MRS medium without carbohydrate, and 5% (w/v) calf serum:
A. 0.1% (w/v) sodium benzoate
B. 0.2% (w/v) sodium benzoate
C. 0.02% (w/v) sodium dehydroacetate
D. 0.25% (w/v) sodium propionate group
E. 0.5% (w/v) sodium propionate group
(§4) F. 0.02% (w/v) sodium dehydroacetate+0.25% (w/v) sodium propionate group
(§5) G. 0.02% (w/v) sodium dehydroacetate+0.5% (w/v) sodium propionate group
(§6) The culture medium of each group was adjusted to pH 5.4, sterilized and packed in a test tube in a specification of 2 ml/tube.
(§7) (2) Inoculation and incubation of test strains: a bacterial suspension containing (1-5)×10^5 cfu/ml Candida glabrada isolate and a bacterial suspension containing (1-5)×10^5 cfu/ml L. jensenii were inoculated to each tube respectively. The Candida glabrada was aerobically incubated at 37° C. for 72 hrs, and the L. jensenii was microaerophilic incubated for 22 hrs.

Candida glabrada isolate = details: medium with 0.5% (w/v) isomaltulose, pH 5.4
From the text: as §3
A. 0.1% (w/v) sodium benzoate
B. 0.2% (w/v) sodium benzoate
C. 0.02% (w/v) sodium dehydroacetate
D. 0.25% (w/v) sodium propionate group
E. 0.5% (w/v) sodium propionate group
as §4, §5, §6, §7

BV-associated bacteria [2] = assay: Acid production by BV-associated bacteria in carbohydrate containing gels, slightly aerobic incubation (Experimental Example 1); assay type: cell-based; details: 1% (w/v) carbohydrate gel
From the text: (1) Grouping in experiment: • (1) Isomaltulose group: containing 1% (w/v) isomaltulose, MRS basal medium without carbohydrate, 5% (w/v) calf serum, and 0.5% (w/v) xanthan gum, pH5.4; • (2) Isomaltose group: containing 1% (w/v) isomaltose, MRS basal medium without carbohydrate, 5% (w/v) calf serum, and 0.5% (w/v) xanthan gum, pH5.4; • (3) Sucrose group: containing 1% (w/v) sucrose, MRS basal medium without carbohydrate, 5% (w/v) calf serum, and 0.5% (w/v) xanthan gum, pH5.4; and • (4) Maltose group: containing 1% (w/v) maltose, MRS basal medium without carbohydrate, 5% (w/v) calf serum, and 0.5% (w/v) xanthan gum, pH5.4.
The gel of each group was formulated essentially following the method described in Composition Example 1, then sterilized, added with calf serum, and packed in test tubes in a specification of 5 g/tube, for late use.
as §1
(3) After sampling, the secretion specimens from BV patients meeting the criteria of inclusion were immediately inoculated to the above 4 gels containing a carbohydrate, and slightly aerobically incubated at 37° C. for 46 hrs. The pH values of the gel matrices are detected with a precise pH test paper respectively at 14 hrs, 36 hrs, and 46 hrs.

[3] = test system: Lactobacilli in the secretions from BV patients; assay: Selective promotion of carbohydrate containing gels for the growth of Lactobacilli, 16s rDNA identification (Experimental Example 4); assay type: cell-based; details: secretions from 20 BV patients; 1% (w/v) carbohydrate gel, 48 hrs slightly aerobic
Protocol: (§2) (3) After sampling, the vaginal secretion specimens from BV patients meeting the criteria of inclusion were immediately inoculated to the above 4 gels containing a carbohydrate, slightly aerobically incubated at 37° C. for 48 hrs, then transferred to a plate containing improved MRS with 1% (w/v) glucose and 5% (w/v) calf serum, slightly aerobically incubated for 20-48 hrs, isolated, purified and multiplied. The strain was identified by 16s rDNA sequencing.

[4] = test system: Bifidobacteria in the secretions from BV patients; assay: Selective promotion of carbohydrate containing gels for the growth of Bifidobacteria (Experimental Example 4); assay type: cell-based; details: secretions from 20 BV patients; 1% (w/v) carbohydrate gel, 48 hrs slightly aerobic
Protocol: as §2

[5] = test system: Gardnerella vaginalis in the secretions from BV patients; assay: Selective promotion of carbohydrate containing gels for the growth of Gardnerella vaginalis (Experimental Example 4); assay type: cell-based; details: secretions from 20 BV patients; 1% (w/v) carbohydrate gel, 48 hrs slightly aerobic
Protocol: as §2

Canidia albicans = assay: Metabolization of carbohydrates by Canidia albicans, residual carbohydrate by HPLC (Experimental Example 5); assay type: cell-based; details: for residual carbohydrate content by HPLC: 72 hrs aerobic, 37° C., initial 1.5% (w/v) carbohydrate, pH 7.0, detection limit 0.05% (w/v)
Protocol: (1) Grouping in experiment:
(2) Test strain: 2 strains of Canidia albicans, isolated from patients with candidal vaginitis.
The supernatant was separated by centrifugation, and packed in a specification of 5 ml/tube. The carbohydrate content in each tube was detected by HPLC.

[6] = 0.02% (w/v) sodium dehydroacetate

CCS(=O)(=O)CCn1c([N+](=O)[O-])cnc1C [tinidazole]
cure rate for BV (BV; FDA 1998 guideline, both the clinical and microbiological cure standards met): 37%
cure rate for BV (BV; cure if 3 of the 4 traditional Amsel clinical criteria are normal): 57%

O=C(CO)[C@@H](O)[C@H](O)[C@H](O)CO [Fructose, fructose]
pH of the semi-solid agar (BV-associated bacteria [1]; Specimen 1): 4.6
pH of the semi-solid agar (BV-associated bacteria [1]; Specimen 2): 4.1
pH of the semi-solid agar (BV-associated bacteria [1]; Specimen 3): 3.8-4.1
pH of the semi-solid agar (BV-associated bacteria [1]; Specimen 4): 4.1
pH of the semi-solid agar (BV-associated bacteria [1]; Specimen 5): 3.8

O=C([O-])c1ccccc1.[Na+] [sodium benzoate]
turbidity, Lactobacilli (0 hr) (L. jensenii; 0.1% (w/v) sodium benzoate): 0.6
turbidity, Lactobacilli (22 hrs) (L. jensenii; 0.1% (w/v) sodium benzoate): 0.9
turbidity, Lactobacilli (0 hr) (L. jensenii; 0.2% (w/v) sodium benzoate): 0.7
turbidity, Lactobacilli (22 hrs) (L. jensenii; 0.2% (w/v) sodium benzoate): 0.7
turbidity, Candida (0 hr) (Candida glabrada isolate; 0.1% (w/v) sodium benzoate): 0.6
turbidity, Candida (72 hrs) (Candida glabrada isolate; 0.1% (w/v) sodium benzoate): 7.1
turbidity, Candida (0 hr) (Candida glabrada isolate; 0.2% (w/v) sodium benzoate): 0.6
turbidity, Candida (72 hrs) (Candida glabrada isolate; 0.2% (w/v) sodium benzoate): 2.1

CCC(=O)[O-].[Na+] [sodium propionate]
turbidity, Lactobacilli (0 hr) (L. jensenii; 0.25% (w/v) sodium propionate): 0.6
turbidity, Lactobacilli (22 hrs) (L. jensenii; 0.25% (w/v) sodium propionate): 5.2
turbidity, Lactobacilli (0 hr) (L. jensenii; 0.5% (w/v) sodium propionate): 0.4
turbidity, Lactobacilli (22 hrs) (L. jensenii; 0.5% (w/v) sodium propionate): 1.7
turbidity, Candida (0 hr) (Candida glabrada isolate; 0.25% (w/v) sodium propionate): 0.5
turbidity, Candida (72 hrs) (Candida glabrada isolate; 0.25% (w/v) sodium propionate): >7.5
turbidity, Candida (0 hr) (Candida glabrada isolate; 0.5% (w/v) sodium propionate): 0.4
turbidity, Candida (72 hrs) (Candida glabrada isolate; 0.5% (w/v) sodium propionate): 6.3

Cc1ncc([N+](=O)[O-])n1CCO [metronidazole]
cure rate (BV; BV patients): about 60%

CC(=O)c1c([O-])cc(C)oc1=O.[Na+] [sodium dehydroacetate]
turbidity, Lactobacilli (0 hr) (L. jensenii; [6]): 0.5
turbidity, Lactobacilli (22 hrs) (L. jensenii; [6]): 1.4
turbidity, Candida (0 hr) (Candida glabrada isolate; [6]): 0.5
turbidity, Candida (72 hrs) (Candida glabrada isolate; [6]): 3.9

OC[C@H]1O[C@H](O[C@H]2[C@H](O)[C@@H](O)C(O)O[C@@H]2CO)[C@H](O)[C@@H](O)[C@@H]1O (mixture of isomers) [Maltose, maltose]
pH of the gel (BV-associated bacteria [2]; Specimen 1, 0 hr (initial)): 5.4
pH of the gel (BV-associated bacteria [2]; Specimen 1, 14 hrs, slightly aerobic, 37° C., initial pH 5.4): 3.8
pH of the gel (BV-associated bacteria [2]; Specimen 1, 46 hrs, slightly aerobic, 37° C., initial pH 5.4): ≤3.8
pH of the gel (BV-associated bacteria [2]; Specimen 2, 0 hr (initial)): 5.4
pH of the gel (BV-associated bacteria [2]; Specimen 2, 14 hrs, slightly aerobic, 37° C., initial pH 5.4): 4.1-4.4
pH of the gel (BV-associated bacteria [2]; Specimen 2, 46 hrs, slightly aerobic, 37° C., initial pH 5.4): ≤3.8
pH of the gel (BV-associated bacteria [2]; Specimen 3, 0 hr (initial)): 5.4
pH of the gel (BV-associated bacteria [2]; Specimen 3, 14 hrs, slightly aerobic, 37° C., initial pH 5.4): 4.1-4.4
pH of the gel (BV-associated bacteria [2]; Specimen 3, 36 hrs, slightly aerobic, 37° C., initial pH 5.4): ≤3.8
pH of the gel (BV-associated bacteria [2]; Specimen 4, 0 hr (initial)): 5.4
pH of the gel (BV-associated bacteria [2]; Specimen 4, 14 hrs, slightly aerobic, 37° C., initial pH 5.4): 4.6
pH of the gel (BV-associated bacteria [2]; Specimen 4, 36 hrs, slightly aerobic, 37° C., initial pH 5.4): ≤3.8
pH of the gel (BV-associated bacteria [2]; Specimen 5, 0 hr (initial)): 5.4
pH of the gel (BV-associated bacteria [2]; Specimen 5, 14 hrs, slightly aerobic, 37° C., initial pH 5.4): 4.1-4.4
pH of the gel (BV-associated bacteria [2]; Specimen 5, 36 hrs, slightly aerobic, 37° C., initial pH 5.4): 4.1-4.4
pH of the semi-solid agar (BV-associated bacteria [1]; Specimen 1): 3.8
pH of the semi-solid agar (BV-associated bacteria [1]; Specimen 2): 3.8
pH of the semi-solid agar (BV-associated bacteria [1]; Specimen 3): 3.8
pH of the semi-solid agar (BV-associated bacteria [1]; Specimen 4): 3.8
pH of the semi-solid agar (BV-associated bacteria [1]; Specimen 5): 3.8
samples positive for Lactobacilli, In total [3]: 8
total number of samples positive for L. amylovorus incubation [3]: 1
total number of samples positive for L. crispatus incubation [3]: 1
total number of samples positive for L. gasseri incubation [3]: 2
total number of samples positive for L. iners incubation [3]: 0
total number of samples positive for L. jensenii incubation [3]: 3
total number of samples positive for L. mucosae incubation [3]: 1
number of samples positive for Bifidobacterium bifidum [4]: 1 (8)
number of samples positive for Bifidobacterium breve [4]: 0
number of samples positive for Bifidobacterium dentium [4]: 0
number of samples positive for Bifidobacterium longum [4]: 0
samples positive for Bifidobacteria, In total [4]: 1
number of samples positive for Gardnerella vaginalis [5]: 6 (2, 6, 7, 9, 15, 19)
samples positive for Gardnerella vaginalis, In total [5]: 6
residual carbohydrate content by HPLC (Canidia albicans; Canidia albicans 1): Not detected^1
residual carbohydrate content by HPLC (Canidia albicans; Canidia albicans 2): Not detected
residual concentration (Canidia albicans; both strains of Canidia albicans, 72 hrs, initial 1.5% (w/v)): below 0.05 % (w/v)
